Source: patent EP2459571B1, “NITROIMIDAZOOXAZINES AND THEIR USES IN ANTI-TUBERCULAR THERAPY” (priority 2009, dated 2011)
≈ marks a conversion by molar mass, not a printed value.

Tests used:
[1] = CD-1 mice, oral, 40 mg/kg; for t½ (h) plasma: suspension in 0.5% carboxymethylcellulose/0.08% Tween 80
M. tuberculosis Erdman [2] = test system: M. tuberculosis Erdman; design: species or system BALB/c mice; conditions: mouse, po, 100 mg/kg
[3] = test system: M. tuberculosis bacteria in the non-replicating state; assay: microbe, parasite or virus in culture; format: cell-based; conditions: Mycobacterium tuberculosis, 264 h, low oxygen, 11 day, read-out: MIC LORA (anaerobic)
in vivo = conditions: mouse, po, 40 mg/kg
M. tuberculosis Erdman [4] = format: in vivo, BALB/c mice; conditions: mouse, in vivo, po, 100 mg/kg
[5] = test system: replicating Mycobacterium tuberculosis; assay: MIC, microplate Alamar blue assay (MABA), 8 day; format: cell-based; conditions: 192 h, read-out: MIC MABA (aerobic)
[6] = Stability to human liver microsomes; format: in vitro ADME; conditions: pH 7.4, 37 °C, 0.5 mg/mL protein, NADPH regenerating system, 60 min
[7] = Stability to mouse liver microsomes; format: in vitro ADME, CD-1 mouse; conditions: pH 7.4, 37 °C, 0.5 mg/mL protein, NADPH regenerating system, 60 min

## O=[N+]([O-])c1cn2c(n1)OC[C@@H](OCc1ccc(-c3ccc(OC(F)(F)F)cc3)cn1)C2 [compound 7, (6S)-2-Nitro-6-({5-[4-(trifluoromethoxy)phenyl]-2-pyridinyl}methoxy)-6,7-dihydro-5H-imidazo[2,1-b][1,3]oxazine]
[1]
  t½ (h) plasma: 5.4 h
M. tuberculosis Erdman [2]
  In vivo efficacy vs PA-824, Acute: 27
[3]
  MIC: 3.7 µM (≈ 1.61 µg/mL)
In vivo
  AUC: 427000 ng·h/mL
M. tuberculosis Erdman [4]
  In vivo efficacy vs PA-824, Chronic: 0.9
[5]
  MIC: 0.065 µM (≈ 0.0284 µg/mL)

## O=[N+]([O-])c1cn2c(n1)OC[C@@H](OCc1ccc(-c3ccc(C(F)(F)F)cn3)cc1)C2 [compound 8, (6S)-2-Nitro-6-({4-[5-(trifluoromethyl)-2-pyridinyl]benzyl}oxy)-6,7-dihydro-5H-imidazo[2,1-b][1,3]oxazine]
[1]
  Cmax plasma: 1100 ng/mL
  t½ (h) plasma: 8.8 h
M. tuberculosis Erdman [2]
  In vivo efficacy vs PA-824, Acute: 33
[3]
  MIC: 1 µM (≈ 0.42 µg/mL)
In vivo
  AUC: 67300 ng·h/mL
M. tuberculosis Erdman [4]
  In vivo efficacy vs PA-824, Chronic: 1.7
[5]
  MIC: 0.06 µM (≈ 0.0252 µg/mL)

## O=[N+]([O-])c1cn2c(n1)OC[C@@H](OCc1ccn(-c3ccc(OC(F)(F)F)cc3)n1)C2 [compound 10, (6S)-2-nitro-6-({1-[4-(trifluoromethoxy)phenyl]-1H-pyrazol-3-yl}methoxy)-6,7-dihydro-5H-imidazo[2,1-A][1,3]oxazine]
M. tuberculosis Erdman [2]
  In vivo efficacy vs PA-824, Acute: 41
[3]
  MIC: 0.61 µM (≈ 0.259 µg/mL)
[6]
  remaining at 1 h, 1 µM: 87%
In vivo
  AUC: 31500 ng·h/mL
[7]
  remaining at 1 h, 1 µM: 67%
[5]
  MIC: 0.05 µM (≈ 0.0213 µg/mL)

## O=[N+]([O-])c1cn2c(n1)OC[C@@H](OCc1ccc(-c3ccc(OC(F)(F)F)cc3)cc1F)C2 [compound 12, (6S)-6-{[3-Fluoro-4'-(trifluoromethoxy)[1,1'-biphenyl]-4-yl]methoxy}-2-nitro-6,7-dihydro-5H-imidazo[2,1-b][1,3]oxazine]
[1]
  Cmax plasma: 6700 ng/mL
M. tuberculosis Erdman [2]
  In vivo efficacy vs PA-824, Acute: 33
[3]
  MIC: 1.2 µM (≈ 0.544 µg/mL)
In vivo
  AUC: 549000 ng·h/mL
M. tuberculosis Erdman [4]
  In vivo efficacy vs PA-824, Chronic: 16
[5]
  MIC: 0.017 µM (≈ 0.00771 µg/mL)

## O=[N+]([O-])c1cn2c(n1)OC[C@@H](OCc1ccc(Cc3ccc(OC(F)(F)F)cc3)cc1)C2 [compound 17, (6S)-2-Nitro-6-({4-[4-(trifluoromethoxy)benzyl]benzyl}oxy)-6,7-dihydro-5H-imidazo[2,1-b][1,3]oxazine]
[3]
  MIC: 1.1 µM (≈ 0.494 µg/mL)
[6]
  remaining at 1 h, 1 µM: 85%
[7]
  remaining at 1 h, 1 µM: 70%
[5]
  MIC: 0.02 µM (≈ 0.00899 µg/mL)

## O=[N+]([O-])c1cn2c(n1)OC[C@@H](OCc1ccc(C#Cc3ccc(C(F)(F)F)nc3)cn1)C2 [compound 25, (6S)-2-Nitro-6-[(5-{[6-(trifluoromethyl)-3-pyridinyl]ethynyl}-2-pyridinyl)methoxy]-6,7-dihydro-5H-imidazo[2,1-b][1,3]oxazine]
[3]
  MIC: 0.74 µM (≈ 0.33 µg/mL)
[6]
  remaining at 1 h, 1 µM: 88%
[7]
  remaining at 1 h, 1 µM: 91%
[5]
  MIC: 0.035 µM (≈ 0.0156 µg/mL)

## O=[N+]([O-])c1cn2c(n1)OC[C@@H](OCC#Cc1ccc(-c3ccc(OC(F)(F)F)cc3)cc1)C2 [compound 30, (6S)-2-Nitro-6-({3-[4'-(trifluoromethoxy)[1,1'-biphenyl]-4-yl]-2-propynyl}oxy)-6,7-dihydro-5H-imidazo[2,1-b][1,3]oxazine]
[1]
  Cmax plasma: 570 ng/mL
  t½ (h) plasma: 7.5 h
M. tuberculosis Erdman [2]
  In vivo efficacy vs PA-824, Acute: 89
[3]
  MIC: 0.99 µM (≈ 0.455 µg/mL)
In vivo
  AUC: 13600 ng·h/mL
M. tuberculosis Erdman [4]
  In vivo efficacy vs PA-824, Chronic: 11
[5]
  MIC: 0.16 µM (≈ 0.0735 µg/mL)

## O=[N+]([O-])c1cn2c(n1)OC[C@@H](OCc1ccc(/C=C/c3ccc(OC(F)(F)F)cc3)cc1)C2 [compound 31, (6S)-2-Nitro-6-[(4-{(E)-2-[4-(trifluoromethoxy)phenyl]ethenyl}benzyl)oxy]-6,7-dihydro-5H-imidazo[2,1-b][1,3]oxazine]
M. tuberculosis Erdman [2]
  In vivo efficacy vs PA-824, Acute: 5.8
[3]
  MIC: 27 µM (≈ 12.5 µg/mL)
[6]
  remaining at 1 h, 1 µM: 99%
[7]
  remaining at 1 h, 1 µM: 98%
[5]
  MIC: 0.02 µM (≈ 0.00923 µg/mL)
